Measurements as given in patent US20200352950A1, “Novel method of treating dystonia” (KOREA ADVANCED INSTITUTE OF SCIENCE AND TECHNOLOGY, priority 2017, published 2020).
“Also recorded” adds a separate entry of the source.

Tests used:
5-HT2A receptor = 5-HT2A receptor (Homo sapiens, UniProt P28223); settings: cited from earlier work
[1] = system: CACNA1Atot/tot mice (tottering mice); assay: Stress-induced dystonia in tottering mice in open field box (attack event number, dystonia score); assay type: in vivo; settings: for degree of relaxation of dystonia (number of dystonia events, dystonia score): FIGS. 3B, 3C, i.p., MDL100907 1 or 2 mg/kg, pimavanserin 1.5 mg/kg, ritanserin 2 mg/kg, glemanserin 2 mg/kg, nelotanserin 1 mg/kg, compared to the control group; for dystonia symptoms, dose-dependent effect: FIG. 3A
[2] = system: CACNA1Atot/tot mice (tottering mice); assay: EMG cross correlation between tibialis anterior and gastrocnemius muscles of tottering mice; assay type: in vivo; settings: FIG. 1G; stressed environment; compared to control group
Text: Electrodes (A-M system, USA) were surgically inserted into the gastrocnemius (GS) and tibialis anterior (TA) muscle for EMG recording, respectively. The electrodes were made using multiple strands of stainless-steel wires attached to each other and coated with Teflon. After shaving the hair of the right hind leg and behind the neck, a small incision was formed in the skin of the dorsal neck area. Four sets of recording electrodes were connected from the neck incision to the muscles under the skin. The EMG wires were wired under the skin and connected to a connector fixed to the skull. The low impedance of the exposed end of the wires allows the capture of electrical signals that have passed through relatively long distances (Pearson et al., J. Neurosci. Methods, 148 (1): 36-42, 2005). The EMG signals from the electrodes were sampled at 10 kHz and digitized with MiniDigi 1A (Axon Instrument, USA). Raw traces were analyzed using Clampfit 9.2 (Axon Instrument, USA). The cross correlation was calculated by using the standard of NeuroExplorer (Ver. 4, Nex Technologies, USA). […] The cross correlation indicates the degree of EMG overlap for a certain period in two muscles (TA and GS), and is a measure for judging whether the dystonia symptoms occur simultaneously in two muscles. […] That is, the greater the cross correlation value (Cross Corr.), which is the Y-axis value when the signal between each other is 0 ms (when contracted at the same time), the more severe the dystonia symptoms that the two muscles contract at the same time. The unit of the Y axis, AU, is a relative cross correlation value when the control is set to 1 which is an arbitrary unit.

[3] = system: calcium ion concentration in the cerebellum; assay: Real-time GCaMP6 fluorescence measurement of calcium ion concentration in the cerebellum of tottering mice; assay type: in vivo; settings: FIG. 4E; stress environment
Method: In order to analyze the correlation between the degree of dystonia symptoms and the concentration of calcium ions in neurons, optogenetic model animals were prepared. Particularly, for a photometric system with a polarization-maintaining single-mode optical fiber, AAV2/9-CAG-FLEX-GCaMP6m (zadmehr et al., Cell, 164: 617-631, 2016) and AAV2/9-CMV-Cre (Gompf et al., Front. Behav. Neurosci. 9: 152, 2015) viral vectors were injected unilaterally into 0.25 μl each of the fastigial nucleus of the CACNA1A^tot/tot mouse through stereotaxic surgery. The virus injection was carried out 4 weeks before the experiment. […] For the fluorescence measurement, a TCSPC-based light measurement system (Becker & Hickel, Germany) was used.
The change in calcium signaling in the cerebellum is possible by transduction of a gene encoding the calcium sensor protein GCaMP6 into the cerebellum of the dystonia model mouse, and then measuring the intensity of fluorescence of the GCaMP6 protein bound to calcium ions. […] The present inventors performed real-time fluorescence analysis to analyze the correlation between dystonia symptoms and calcium ion concentration in nerve tissues in the topical transduction tottering mice prepared in Example 2. […] After the pulse laser irradiation, 509 nm wavelength fluorescence was measured using a TCSPC-based optical measurement system (Becker & Hickl, Germany). […]

[4] = system: CACNA1Atot/tot mice (tottering mice); assay: Stress-induced dystonia in tottering mice in open field box (attack event number, dystonia score); assay type: in vivo; settings: FIG. 1F; i.p. 30 min before test; Way100135 10 mg/kg, MDL100907 1 mg/kg, ondansetron 1 mg/kg; open field box 30 min
Method: The 7-8 weeks old CACNA1Atot/tot mice (Fletcher, Cell, 87 (4): 607-617, 1996, The Jackson Laboratory, Stock No: 000544) were selected kept and dealt complied with the regulation (protocol number KA2015-05) of Institutional Animal Care and Use Committee of the Korea Advanced Institute of Science and Technology (KAIST). The mice remained freely accessible to water and feed, and the light-dark cycle was 12/12 hours. Behavioral tests were performed 4 weeks after the viral transduction. […]
The drugs were dissolved in physiological saline and administrated […] to the tottering animal prepared by the Examples 2 and kept in the controlled environment of 12/12 hour light-dark cycle. […] The behavior test was performed 30 minutes after drug administration, and the experimental animals were acclimated in the home for 30 minutes and moved to an open field box, they were exposed to a stressed environment by leaving them in the open field box for 30 min, and the symptoms of dystonia were measured. The symptoms of dystonia and its severity were calculated using a 5-point scale dystonia score as follows: 0=normal behavior, 1=abnormal motor behavior, no myotonic posture, 2=minor dyskinesia, showing dystonia-like psture when disturbed, 3=moderate motor disability, frequent spontaneous myotonic posture, 4=severe motor disability, and persistent myotonic posture.

Sequence of 5-HT2A receptor (P28223 whole entry): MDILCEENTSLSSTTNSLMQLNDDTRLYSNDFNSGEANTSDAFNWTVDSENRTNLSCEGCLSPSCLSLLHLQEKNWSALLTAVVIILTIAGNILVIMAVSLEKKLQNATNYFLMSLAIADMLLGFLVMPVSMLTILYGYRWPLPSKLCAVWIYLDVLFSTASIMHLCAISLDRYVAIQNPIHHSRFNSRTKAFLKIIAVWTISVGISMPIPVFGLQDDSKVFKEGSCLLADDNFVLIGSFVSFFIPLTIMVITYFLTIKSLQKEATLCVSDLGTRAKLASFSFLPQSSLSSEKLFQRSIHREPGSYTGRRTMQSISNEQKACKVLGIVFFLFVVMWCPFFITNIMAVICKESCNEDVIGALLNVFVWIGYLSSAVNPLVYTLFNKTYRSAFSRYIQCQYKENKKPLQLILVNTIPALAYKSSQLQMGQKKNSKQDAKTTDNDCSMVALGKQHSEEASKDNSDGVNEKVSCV

Compound | Ki (5-HT2A receptor; 5-HT2A receptor) [nM] | degree of relaxation of dystonia (number of dystonia events, dystonia score) [1] | EMG cross correlation (TA and GS muscles) [2] | other results
COc1ccc(CC(=O)N(Cc2ccc(C)cc2)C2CCN(C)CC2)cc1 [AC-90179] | 2.1 ± 0.2 |  |  | 
OC(c1ccccc1)C1CCN(CCc2ccccc2)CC1 (stereo not shown) [Glemanserin] |  | showed no significant effect |  | IC50 (5-HT2A receptor): 6.5 ± 2 nM
OCCOCCN1CCN(C(c2ccccc2)c2ccc(Cl)cc2)CC1 (stereo not shown) [Hydroxyzine] |  |  |  | IC50 (5-HT2A receptor): 170 nM
COc1ccc(NC(=O)Nc2ccc(F)cc2F)cc1-c1c(Br)cnn1C [Nelotanserin] | 0.4 ± 0.07 | showed no dystonia paralysis |  | 
CC(CCN1CCN(c2ccc(F)cc2)CC1)NC(=O)c1cccnc1 (stereo not shown) [Niaprazine] | 75 |  |  | pKi (5-HT2A receptor; 5-HT2A receptor): 7.61 ± 0.18
CC(C)COc1ccc(CNC(=O)N(Cc2ccc(F)cc2)C2CCN(C)CC2)cc1 [Pimavanserin] |  | showed no dystonia paralysis; also recorded: reduced symptoms of dystonia compared to Glemanserin |  | 
Cc1nc2sccn2c(=O)c1CCN1CCC(=C(c2ccc(F)cc2)c2ccc(F)cc2)CC1 [Ritanserin] |  | showed no dystonia paralysis |  | 
COc1cccc([C@H](O)C2CCN(CCc3ccc(F)cc3)CC2)c1OC [Volinanserin] |  | showed no dystonia paralysis; also recorded: reduced symptoms of dystonia compared to Glemanserin | the correlation disappeared | increase in GCaMP6 fluorescence signal (ΔF/F) in cerebellum after moving to open field box [3]: reduced to the level when staying at the home; dystonia symptoms, dose-dependent effect ([1]; 0.1 mg/kg): dystonia symptoms were significantly suppressed; dystonia symptoms, dose-dependent effect ([1]; 2 mg/kg rather than 1 mg/kg): symptoms were slightly alleviated
COc1ccccc1N1CCN(CC(C(=O)NC(C)(C)C)c2ccccc2)CC1 (stereo not shown) [Way100135] |  |  | there is no difference | symptoms of dystonia (attack event number and muscle dysfunction index) [4]: did not reduce symptoms of dystonia at all
Cc1nccn1CC1CCc2c(c3ccccc3n2C)C1=O (stereo not shown) [ondansetron] |  |  | there is no difference | symptoms of dystonia (attack event number and muscle dysfunction index) [4]: did not reduce symptoms of dystonia at all
